In patent publication US8802597B2, “Herbicidal pyrimidines” (E I du Pont de Nemours and Company, priority 2003, dated 2014):
Like-named read-outs stand apart in the source and are kept apart here.

Assays:
Format in all cases: in vivo
[1] = system: Surinam grass (Brachiaria decumbens); assay: Test B pre/postemergence; conditions: Urochloa decumbens; for pest or weed control at 125 g/ha: 125 g ai/ha; for pest or weed control at 62 g/ha: 62 g ai/ha
Summary of the method: (§1)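 Greenhouse whole-plant test; surfactant-containing non-phytotoxic solvent formulation; pre- and postemergence applications made simultaneously; post plants 2–18 cm, 1- to 4-leaf; visual scoring at 13–15 days on 0–100 scale relative to controls.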

[2] = system: barnyardgrass (Echinochloa crus-galli); assay: Test B pre/postemergence; conditions: Echinochloa crus-galli, scale 0 to 100 (0 no effect, 100 complete control); for pest or weed control at 62 g/ha: 62 g ai/ha; for pest or weed control at 125 g/ha: 125 g ai/ha
Summary of the method: as §1

[3] = system: cocklebur (Xanthium strumarium); assay: Test B pre/postemergence; conditions: Xanthium strumarium; for pest or weed control at 62 g/ha: 62 g ai/ha; for pest or weed control at 125 g/ha: 125 g ai/ha
Summary of the method: as §1

corn (Zea mays) = assay: Test B pre/postemergence; conditions: Zea mays
Summary of the method: as §1

[4] = system: crabgrass (Digitaria sanguinalis); assay: Test B pre/postemergence; conditions: Digitaria sanguinalis; for pest or weed control at 62 g/ha: 62 g ai/ha; for pest or weed control at 125 g/ha: 125 g ai/ha
Summary of the method: as §1

[5] = system: giant foxtail (Setaria faberii); assay: Test B pre/postemergence; conditions: Setaria faberi; for pest or weed control at 125 g/ha: 125 g ai/ha; for pest or weed control at 62 g/ha: 62 g ai/ha
Summary of the method: as §1

[6] = system: lambsquarters (Chenopodium album); assay: Test B pre/postemergence; conditions: Chenopodium album; for pest or weed control at 62 g/ha: 62 g ai/ha; for pest or weed control at 125 g/ha: 125 g ai/ha
Summary of the method: as §1

[7] = system: morningglory (Ipomoea coccinea); assay: Test B pre/postemergence; conditions: Ipomoea; for pest or weed control at 62 g/ha: 62 g ai/ha; for pest or weed control at 125 g/ha: 125 g ai/ha
Summary of the method: as §1

[8] = system: pigweed (Amaranthus retroflexus); assay: Test B pre/postemergence; conditions: Amaranthus retroflexus; for pest or weed control at 62 g/ha: 62 g ai/ha; for pest or weed control at 125 g/ha: 125 g ai/ha
Summary of the method: as §1

[9] = system: velvetleaf (Abutilon theophrasti); assay: Test B pre/postemergence; conditions: Abutilon theophrasti; for pest or weed control at 62 g/ha: 62 g ai/ha; for pest or weed control at 125 g/ha: 125 g ai/ha
Summary of the method: as §1

[10] = system: wheat (Triticum aestivum); assay: Test B pre/postemergence; conditions: Triticum aestivum, scale 0 to 100 (0 no effect, 100 complete control); for plant injury at 62 g/ha: 62 g ai/ha; for plant injury at 125 g/ha: 125 g ai/ha
Summary of the method: as §1

[11] = system: blackgrass (Alopecurus myosuroides); assay: Test B postemergence; conditions: Alopecurus myosuroides, post-emergence, scale 0 to 100 (0 no effect, 100 complete control), read-out: Blackgrass plant response rating
Summary of the method: as §1

wild oat (Avena fatua) = assay: Test B postemergence; conditions: Avena fatua, post-emergence, scale 0 to 100 (0 no effect, 100 complete control), read-out: Oat, Wild plant response rating
Summary of the method: as §1

[12] = system: barnyardgrass (Echinochloa crus-galli); assay: Test B flooded paddy test; conditions: Echinochloa crus-galli, Flood, scale 0 to 100, read-out: Plant response rating, Barnyardgrass
Summary of the method: (§2)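 Rice, umbrella sedge, duck salad and barnyardgrass grown to 2-leaf stage under flooded paddy conditions and treated with formulated test chemicals. Kept in greenhouse 13–15 days, then visually rated against untreated controls on a 0–100 scale (0 no effect, 100 complete control).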

[13] = system: duck salad (Heteranthera limosa); assay: Test B flooded paddy test; conditions: Heteranthera limosa, Flood, scale 0 to 100, read-out: Plant response rating, Ducksalad
Summary of the method: as §2

rice (Oryza sativa) = assay: Test B flooded paddy test; conditions: Oryza sativa, Flood, scale 0 to 100, read-out: Plant response rating, Rice
Summary of the method: as §2

[14] = system: umbrella sedge (Cyperus difformis); assay: Test B flooded paddy test; conditions: Cyperus difformis, Flood, scale 0 to 100, read-out: Plant response rating, Sedge, Umbrella
Summary of the method: as §2

[15] = post-emergence, Postemergence, scale 0 to 100 (0 no effect, 100 complete control), read-out: Surinam Grass plant response rating
[16] = post-emergence, Postemergence, read-out: Barnyardgrass plant response rating
[17] = pre-emergence, Preemergence, read-out: Plant response rating, Barnyardgrass
[18] = post-emergence, Postemergence, scale 0 to 100 (0 no effect, 100 complete control), read-out: Cocklebur plant response rating
[19] = post-emergence, Postemergence, scale 0 to 100 (0 no effect, 100 complete control), read-out: Crabgrass plant response rating
[20] = post-emergence, Postemergence, scale 0 to 100 (0 no effect, 100 complete control), read-out: Foxtail, Giant plant response rating
[21] = post-emergence, Postemergence, scale 0 to 100 (0 no effect, 100 complete control), read-out: Lambsquarters plant response rating
[22] = post-emergence, Postemergence, scale 0 to 100 (0 no effect, 100 complete control), read-out: Morningglory plant response rating
[23] = post-emergence, Postemergence, scale 0 to 100 (0 no effect, 100 complete control), read-out: Pigweed plant response rating
[24] = post-emergence, Postemergence, scale 0 to 100 (0 no effect, 100 complete control), read-out: Velvetleaf plant response rating
[25] = post-emergence, Postemergence, read-out: Wheat plant response rating
[26] = pre-emergence, Preemergence, read-out: Plant response rating, Wheat

Nc1nc(C2CC2)nc(C(=O)OCc2ccccc2)c1Cl [Compound 78, phenylmethyl 6-amino-5-chloro-2-cyclopropyl-4-pyrimidinecarboxylate]
pest or weed control at 125 g/ha [1, 15]: 80%
pest or weed control at 62 g/ha [1, 15]: 60%
pest or weed control at 125 g/ha ([1]; pre-emergence, Preemergence, scale 0 to 100 (0 no effect, 100 complete control), read-out: Plant response rating, Surinam Grass): 90%
pest or weed control at 62 g/ha ([1]; pre-emergence, Preemergence, scale 0 to 100, 0 no effect, 100 complete control, read-out: Plant response rating, Surinam Grass): 60%
pest or weed control at 62 g/ha [2, 16]: 80%
pest or weed control at 125 g/ha [2, 16]: 90%
pest or weed control at 62 g/ha [2, 17]: 60%
pest or weed control at 125 g/ha [2, 17]: 70%
pest or weed control at 62 g/ha [3, 18]: 100%
pest or weed control at 125 g/ha [3, 18]: 100%
pest or weed control at 62 g/ha ([3]; pre-emergence, Preemergence, scale 0 to 100, 0 no effect, 100 complete control, read-out: Plant response rating, Cocklebur): 80%
pest or weed control at 125 g/ha ([3]; pre-emergence, Preemergence, scale 0 to 100 (0 no effect, 100 complete control), read-out: Plant response rating, Cocklebur): 100%
plant injury at 62 g/ha (corn (Zea mays); post-emergence, Postemergence, 62 g ai/ha, scale 0 to 100 (0 no effect, 100 complete control), read-out: Corn plant response rating): 40%
plant injury at 125 g/ha (corn (Zea mays); post-emergence, Postemergence, 125 g ai/ha, scale 0 to 100 (0 no effect, 100 complete control), read-out: Corn plant response rating): 80%
Corn plant response rating (crop injury, 0 = no effect, 100 = complete kill) at 62 g/ha (corn (Zea mays); pre-emergence, Preemergence, 62 g ai/ha, scale 0 to 100, 0 no effect, 100 complete control): 30%
Corn plant response rating (crop injury, 0 = no effect, 100 = complete kill) at 125 g/ha (corn (Zea mays); pre-emergence, Preemergence, 125 g ai/ha, scale 0 to 100 (0 no effect, 100 complete control)): 70%
pest or weed control at 62 g/ha [4, 19]: 60%
pest or weed control at 125 g/ha [4, 19]: 70%
pest or weed control at 62 g/ha ([4]; pre-emergence, Preemergence, scale 0 to 100, 0 no effect, 100 complete control, read-out: Plant response rating, Crabgrass): 80%
pest or weed control at 125 g/ha ([4]; pre-emergence, Preemergence, scale 0 to 100 (0 no effect, 100 complete control), read-out: Plant response rating, Crabgrass): 90%
pest or weed control at 125 g/ha [5, 20]: 70%
pest or weed control at 62 g/ha [5, 20]: 60%
pest or weed control at 125 g/ha ([5]; pre-emergence, Preemergence, scale 0 to 100 (0 no effect, 100 complete control), read-out: Plant response rating, Foxtail, Giant): 70%
pest or weed control at 62 g/ha ([5]; pre-emergence, Preemergence, scale 0 to 100, 0 no effect, 100 complete control, read-out: Plant response rating, Foxtail, Giant): 20%
pest or weed control at 62 g/ha [6, 21]: 100%
pest or weed control at 125 g/ha [6, 21]: 100%
pest or weed control at 62 g/ha ([6]; pre-emergence, Preemergence, scale 0 to 100, 0 no effect, 100 complete control, read-out: Plant response rating, Lambsquarters): 90%
pest or weed control at 125 g/ha ([6]; pre-emergence, Preemergence, scale 0 to 100 (0 no effect, 100 complete control), read-out: Plant response rating, Lambsquarters): 100%
pest or weed control at 62 g/ha [7, 22]: 100%
pest or weed control at 125 g/ha [7, 22]: 100%
pest or weed control at 62 g/ha ([7]; pre-emergence, Preemergence, scale 0 to 100, 0 no effect, 100 complete control, read-out: Plant response rating, Morningglory): 80%
pest or weed control at 125 g/ha ([7]; pre-emergence, Preemergence, scale 0 to 100 (0 no effect, 100 complete control), read-out: Plant response rating, Morningglory): 100%
pest or weed control at 62 g/ha [8, 23]: 80%
pest or weed control at 125 g/ha [8, 23]: 100%
pest or weed control at 62 g/ha ([8]; pre-emergence, Preemergence, scale 0 to 100, 0 no effect, 100 complete control, read-out: Plant response rating, Pigweed): 100%
pest or weed control at 125 g/ha ([8]; pre-emergence, Preemergence, scale 0 to 100 (0 no effect, 100 complete control), read-out: Plant response rating, Pigweed): 100%
pest or weed control at 62 g/ha [9, 24]: 70%
pest or weed control at 125 g/ha [9, 24]: 80%
pest or weed control at 62 g/ha ([9]; pre-emergence, Preemergence, scale 0 to 100, 0 no effect, 100 complete control, read-out: Plant response rating, Velvetleaf): 70%
pest or weed control at 125 g/ha ([9]; pre-emergence, Preemergence, scale 0 to 100 (0 no effect, 100 complete control), read-out: Plant response rating, Velvetleaf): 90%
plant injury at 62 g/ha [10, 25]: 50%
plant injury at 125 g/ha [10, 25]: 70%
plant injury at 62 g/ha [10, 26]: 30%
plant injury at 125 g/ha [10, 26]: 70%
pest or weed control at 62 g/ha ([11]; 62 g ai/ha): 20%
pest or weed control at 125 g/ha ([11]; 125 g ai/ha): 40%
pest or weed control at 62 g/ha (wild oat (Avena fatua); 62 g ai/ha): 50%
pest or weed control at 125 g/ha (wild oat (Avena fatua); 125 g ai/ha): 70%
pest or weed control at 125 g/ha ([12]; 125 g ai/ha): 0%
pest or weed control at 500 g/ha ([12]; 500 g ai/ha): 40%
pest or weed control at 125 g/ha ([13]; 125 g ai/ha): 20%
pest or weed control at 500 g/ha ([13]; 500 g ai/ha): 70%
plant injury at 125 g/ha (rice (Oryza sativa); 125 g ai/ha): 20%
plant injury at 500 g/ha (rice (Oryza sativa); 500 g ai/ha): 40%
pest or weed control at 125 g/ha ([14]; 125 g ai/ha): 10%
pest or weed control at 500 g/ha ([14]; 500 g ai/ha): 50%
